Paper PMC9516332 (Frontiers in Oncology, 2022)
Like-named read-outs stand apart in the source and are kept apart here.

How the values were obtained:
[1] = molecular target: panel of 255 wild-type kinases (Homo sapiens, UniProt P06241); assay: Kinase panel profiling at 1 µmol/L (MSA or IMAP), percentage inhibition; format: biochemical; conditions: kinase FYN [isoform a]; 1 µmol/L single concentration; read-out: %-inhibition at 1 µmol/L, FYN [isoform a]
[2] = molecular target: panel of 255 wild-type kinases (Homo sapiens, UniProt Q16816); assay: as above; format: biochemical; conditions: kinase PHKG1; 1 µmol/L single concentration; read-out: %-inhibition at 1 µmol/L, PHKG1
[3] = molecular target: panel of 255 wild-type kinases (Homo sapiens, UniProt Q13882); assay: as above; format: biochemical; conditions: BRK kinase assay; 1 µmol/L single concentration; read-out: %-inhibition BRK
[4] = molecular target: panel of 255 wild-type kinases (Homo sapiens, UniProt P48729); assay: as above; format: biochemical; conditions: kinase CK1α; 1 µmol/L single concentration; read-out: %-inhibition at 1 µmol/L, CK1α
[5] = molecular target: panel of 255 wild-type kinases (Homo sapiens, UniProt Q9H422); assay: as above; format: biochemical; conditions: kinase HIPK3; 1 µmol/L single concentration; read-out: %-inhibition at 1 µmol/L, HIPK3
134 cancer cell lines = assay: Cell viability assay (ATPlite, 72 hours), IC50 on cancer cell line panel

inhibition at 1 µM [1]: 2.29% | inhibition at 1 µM [2]: -3.62% | inhibition at 1 µM [3]: 8% | inhibition at 1 µM [4]: 0.588% | inhibition at 1 µM [5]: 2.27% | IC50 (134 cancer cell lines; HEC-6, read-out: IC50 in cell proliferation assay, HEC-6 cell line (EGFR p.A289V)): 14.8 µM | IC50 (134 cancer cell lines; Homo sapiens, 769-P, read-out: IC50 in cell proliferation assay, cell line 769-P): 20.2 µM | IC50 (134 cancer cell lines; Homo sapiens, 786-0, read-out: IC50 in cell proliferation assay, cell line 786-O): 21.3 µM | IC50 (134 cancer cell lines; Homo sapiens, A 172, read-out: IC50 in cell proliferation assay, cell line A-172): 17.4 µM | IC50 (134 cancer cell lines; Homo sapiens, A204, read-out: IC50 in cell proliferation assay, cell line A-204): 11.4 µM | IC50 (134 cancer cell lines; Homo sapiens, A498, read-out: IC50 in cell proliferation assay, cell line A-498): 20.4 µM | IC50 (134 cancer cell lines; Homo sapiens, A549, read-out: IC50 in cell proliferation assay, cell line A-549): 25.7 µM | IC50 (134 cancer cell lines; Homo sapiens, A704, read-out: IC50 in cell proliferation assay, cell line A-704): > 31.6 µM | IC50 (134 cancer cell lines; Homo sapiens, A-375, read-out: IC50 in cell proliferation assay, cell line A-375 (BRAF p.V600E)): 11.3 µM | IC50 (134 cancer cell lines; Homo sapiens, A-427, read-out: IC50 in cell proliferation assay, cell line A-427): 22.2 µM | IC50 (134 cancer cell lines; Homo sapiens, ACHN, read-out: IC50 in cell proliferation assay, cell line ACHN): 13.9 µM | IC50 (134 cancer cell lines; Homo sapiens, AN3-CA, read-out: IC50 in cell proliferation assay, cell line AN3-CA (FGFR2 p.N549K)): 24.5 µM | IC50 (134 cancer cell lines; Homo sapiens, ASPC1, read-out: IC50 in cell proliferation assay, cell line AsPC-1): > 31.6 µM | IC50 (134 cancer cell lines; Homo sapiens, AU565, read-out: IC50 in cell proliferation assay, cell line AU565 (ERBB2 amplification)): 0.125 µM | IC50 (134 cancer cell lines; Homo sapiens, BT-20, read-out: IC50 in cell proliferation assay, cell line BT-20): 28.8 µM | IC50 (134 cancer cell lines; Homo sapiens, BT-474, read-out: IC50 in cell proliferation assay, cell line BT-474 (ERBB2 amplification)): 0.029 µM | IC50 (134 cancer cell lines; Homo sapiens, BT-549, read-out: IC50 in cell proliferation assay, cell line BT-549): 15.9 µM | IC50 (134 cancer cell lines; Homo sapiens, BXPC-3, read-out: IC50 in cell proliferation assay, cell line BxPC-3): 12.6 µM | IC50 (134 cancer cell lines; Homo sapiens, C-33-A, read-out: IC50 in cell proliferation assay, cell line C-33 A): 0.412 µM | IC50 (134 cancer cell lines; Homo sapiens, CAL-27, read-out: IC50 in cell proliferation assay, cell line CAL-27): 13.7 µM | IC50 (134 cancer cell lines; Homo sapiens, CCF-STTG1, read-out: IC50 in cell proliferation assay, cell line CCF-STTG1): > 31.6 µM | IC50 (134 cancer cell lines; Homo sapiens, CCRF-CEM, read-out: IC50 in cell proliferation assay, cell line CCRF-CEM): 17.7 µM | IC50 (134 cancer cell lines; Homo sapiens, COLO 205, read-out: IC50 in cell proliferation assay, cell line COLO 205 (BRAF p.V600E)): 22.2 µM | IC50 (134 cancer cell lines; Homo sapiens, COLO-829, read-out: IC50 in cell proliferation assay, cell line COLO 829 (BRAF p.V600E)): 20.6 µM | IC50 (134 cancer cell lines; Homo sapiens, DLD-1, read-out: IC50 in cell proliferation assay, cell line DLD-1): 23.2 µM | IC50 (134 cancer cell lines; Homo sapiens, DU-4475, read-out: IC50 in cell proliferation assay, cell line DU4475 (BRAF p.V600E)): 10.7 µM | IC50 (134 cancer cell lines; Homo sapiens, Daoy, read-out: IC50 in cell proliferation assay, cell line Daoy): 30.2 µM | IC50 (134 cancer cell lines; Homo sapiens, DoTc2-4510, read-out: IC50 in cell proliferation assay, cell line DoTc2 4510): 5.59 µM | IC50 (134 cancer cell lines; Homo sapiens, EOL1, read-out: IC50 in cell proliferation assay, cell line EoL-1 (FIP1L1-PDGFRA)): 4.24 µM | IC50 (134 cancer cell lines; Homo sapiens, FaDu, read-out: IC50 in cell proliferation assay, cell line FaDu): 14.1 µM | IC50 (134 cancer cell lines; Homo sapiens, G-361, read-out: IC50 in cell proliferation assay, cell line G-361 (BRAF p.V600E)): 13.5 µM | IC50 (134 cancer cell lines; Homo sapiens, HCC827, read-out: IC50 in cell proliferation assay, cell line HCC827 (EGFR exon19del)): 2.38 µM | IC50 (134 cancer cell lines; Homo sapiens, HCC4006, read-out: IC50 in cell proliferation assay, cell line HCC4006 (EGFR exon19del)): 6.56 µM | IC50 (134 cancer cell lines; Homo sapiens, HCT-15, read-out: IC50 in cell proliferation assay, cell line HCT 15): 16.7 µM | IC50 (134 cancer cell lines; Homo sapiens, HCT-116, read-out: IC50 in cell proliferation assay, cell line HCT 116): 21.9 µM | IC50 (134 cancer cell lines; Homo sapiens, HEC-1, read-out: IC50 in cell proliferation assay, HEC-1 cell line): 13.9 µM | IC50 (134 cancer cell lines; Homo sapiens, HEC-1B, read-out: IC50 in cell proliferation assay, HEC-1-B cell line (EGFR p.A864V)): 1.62 µM | IC50 (134 cancer cell lines; Homo sapiens, HL-60, read-out: IC50 in cell proliferation assay, HL-60 cell line): 16.9 µM | IC50 (134 cancer cell lines; Homo sapiens, HT, read-out: IC50 in cell proliferation assay, HT cell line): 29.9 µM | IC50 (134 cancer cell lines; Homo sapiens, HT-1080, read-out: IC50 in cell proliferation assay, HT-1080 cell line): 17.2 µM | IC50 (134 cancer cell lines; Homo sapiens, Hs746T, read-out: IC50 in cell proliferation assay, Hs 746.T cell line (MET exon14skip + amplification)): 12.4 µM | IC50 (134 cancer cell lines; Homo sapiens, Hs-578T, read-out: IC50 in cell proliferation assay, Hs 578T cell line): 24.1 µM | IC50 (134 cancer cell lines; Homo sapiens, HuTu80, read-out: IC50 in cell proliferation assay, HuTu 80 cell line): 0.623 µM | IC50 (134 cancer cell lines; Homo sapiens, J82, read-out: IC50 in cell proliferation assay, J82 cell line): > 31.6 µM | IC50 (134 cancer cell lines; Homo sapiens, Jurkat E6.1, read-out: IC50 in cell proliferation assay, Jurkat E6.1 cell line): 14.7 µM | IC50 (134 cancer cell lines; Homo sapiens, K562, read-out: IC50 in cell proliferation assay, K-562 cell line): 8.53 µM | IC50 (134 cancer cell lines; Homo sapiens, KATO III, read-out: IC50 in cell proliferation assay, KATO III cell line (FGFR2 amplification)): 17.9 µM | IC50 (134 cancer cell lines; Homo sapiens, KG-1, read-out: IC50 in cell proliferation assay, KG-1 cell line (FGFR1OP2-FGFR1)): 16.2 µM | IC50 (134 cancer cell lines; Homo sapiens, KLE, read-out: IC50 in cell proliferation assay, KLE cell line): 4.74 µM | IC50 (134 cancer cell lines; Homo sapiens, KMS-11, read-out: IC50 in cell proliferation assay, KMS-11 cell line (FGFR3 p.Y373C)): 18.2 µM | IC50 (134 cancer cell lines; Homo sapiens, KU812, read-out: IC50 in cell proliferation assay, Ku812 cell line): 22.6 µM | IC50 (134 cancer cell lines; Homo sapiens, Kasumi 1, read-out: IC50 in cell proliferation assay, Kasumi-1 cell line (KIT p.N822K)): 24.3 µM | IC50 (134 cancer cell lines; Homo sapiens, LC-2-ad, read-out: IC50 in cell proliferation assay, LC-2/ad cell line (CCDC6-RET)): 22.5 µM | IC50 (134 cancer cell lines; Homo sapiens, LNCaP-Clone-FGC, read-out: IC50 in cell proliferation assay, LNCaP clone FGC cell line): 21.8 µM | IC50 (134 cancer cell lines; Homo sapiens, LS174T, read-out: IC50 in cell proliferation assay, LS174T cell line): 20.3 µM | IC50 (134 cancer cell lines; Homo sapiens, LS-411N, read-out: IC50 in cell proliferation assay, LS411N cell line (BRAF p.V600E)): 21.4 µM | IC50 (134 cancer cell lines; Homo sapiens, LoVo, read-out: IC50 in cell proliferation assay, LoVo cell line): 25.7 µM | IC50 (134 cancer cell lines; Homo sapiens, MCF7, read-out: IC50 in cell proliferation assay, MCF-7 cell line): 30.5 µM | IC50 (134 cancer cell lines; Homo sapiens, MDA-MB-231, read-out: IC50 in cell proliferation assay, MDA-MB-231 cell line): 22.5 µM | IC50 (134 cancer cell lines; Homo sapiens, MDA-MB-453, read-out: IC50 in cell proliferation assay, MDA-MB-453 cell line): 5.93 µM | IC50 (134 cancer cell lines; Homo sapiens, MDA-MB-468, read-out: IC50 in cell proliferation assay, MDA-MB-468 cell line): 8.88 µM | IC50 (134 cancer cell lines; Homo sapiens, MG-63, read-out: IC50 in cell proliferation assay, MG-63 cell line): 29.4 µM | IC50 (134 cancer cell lines; Homo sapiens, MIA PaCa-2, read-out: IC50 in cell proliferation assay, MIA PaCa-2 cell line): 18.3 µM | IC50 (134 cancer cell lines; Homo sapiens, MKN-45, read-out: IC50 in cell proliferation assay, MKN45 cell line (MET amplification)): 17.1 µM
Structure (SMILES): Cc1cc(Nc2ncnc3ccc(NC4=NC(C)(C)CO4)cc23)ccc1Oc1ccn2ncnc2c1 [tucatinib]
